In BindingDB's records for doi:10.1021/jm0205043 (University of California, 2003):

Target: Cyclin-dependent kinase 2 (Homo sapiens, UniProt P24941)
Assay: Inhibition of Cyclin-dependent kinase 2 (CDK2)

IC50: 310 nM
SMILES: CN1CCC(c2c(O)cc(O)c3c(O)c(Cc4ccc([N+](=O)[O-])cc4)oc23)CC1 [4,6-Dihydroxy-7-(1-methyl-piperidin-4-yl)-2-(4-nitro-benzylidene)-benzofuran-3-one]
